{
  "source": "patent US7582694B2",
  "about": "“Antimicrobial lubricant for wood fiber-plastic composites” (Lonza, Inc., priority 2002, dated 2009)",
  "key": {"C. globosum": {"test_system": "C. globosum", "assay": "agar plate method, inhibition of fungus growth", "type": "cell-based", "settings": "for percent inhibition (retardation) of the fungal growth, C. globosum: aqueous solution", "experimental": "(§1) The efficacy of aqueous solutions of alkyldimethylbenzyl ammonium lauryl sulfate and didecyldimethyl ammonium lauryl sulfate to inhibit fungus growth was evaluated by the agar plate method known in the art. Also tested were two commercially known biocides: didecyldimethyl ammonium chloride (Bardac® 2080) and alkyldimethylbenzyl ammonium chloride (Barquat® MB-80).\n(§2) The test data are reported as a percent inhibition (retardation) of the fungal growth."}, "G. trabeum": {"test_system": "G. trabeum", "assay": "agar plate method, inhibition of fungus growth", "type": "cell-based", "settings": "for percent inhibition (retardation) of the fungal growth, G. trabeum: aqueous solution", "experimental": "as §1, §2"}, "P. placenta": {"test_system": "P. placenta", "assay": "agar plate method, inhibition of fungus growth", "type": "cell-based", "settings": "for percent inhibition (retardation) of the fungal growth, P. placenta: aqueous solution", "experimental": "as §1, §2"}, "T. versicolor": {"test_system": "T. versicolor", "assay": "agar plate method, inhibition of fungus growth", "type": "cell-based", "settings": "for percent inhibition (retardation) of the fungal growth, T. versicolor: aqueous solution", "experimental": "as §1, §2"}, "[1]": {"test_system": "brown-rot fungus G. trabeum", "assay": "standard soil block test (American Wood Preservation Association E10) on extruded composites", "settings": "extruded samples containing the salt vs conventional lubricant control; 22 weeks G. trabeum", "experimental": "The efficacy of extruded samples containing alkyldimethylbenzyl ammonium lauryl sulfate or didecyldimethyl ammonium lauryl sulfate to inhibit fungal growth was evaluated by the standard soil block test method (American Wood Preservation Association E10) known in the art. The biocide effectiveness is determined by % weight loss in wood component of the tested samples. The sample blocks (13 mm×14 mm×14 mm) were exposed to the brown-rot fungus G. trabeum for 22 weeks, with four replicates per treatment."}, "[2]": {"settings": "Chaetomium globosum, read-out: percent inhibition (retardation) of the fungal growth, C. globosum"}, "[3]": {"settings": "Gloeophyllum trabeum, read-out: percent inhibition (retardation) of the fungal growth, G. trabeum"}, "[4]": {"settings": "read-out: percent inhibition (retardation) of the fungal growth, P. placenta"}, "[5]": {"settings": "Trametes versicolor, read-out: percent inhibition (retardation) of the fungal growth, T. versicolor"}},
  "data": [
    {"molecule": "CCCCCCCCCC[N+](C)(C)CCCCCCCCCC", "note": "[didecyldimethyl ammonium chloride, reference compound]", "values": [
      {"measurement": "inhibition at 50 ppm", "setting": "C. globosum; [2]", "result": 68.2, "unit": "%"},
      {"measurement": "inhibition at 500 ppm", "setting": "C. globosum; [2]", "result": 74.3, "unit": "%"},
      {"measurement": "inhibition at 50 ppm", "setting": "G. trabeum; [3]", "result": 78.4, "unit": "%"},
      {"measurement": "inhibition at 500 ppm", "setting": "G. trabeum; [3]", "result": 82.4, "unit": "%"},
      {"measurement": "inhibition at 50 ppm", "setting": "P. placenta; [4]", "result": 88.4, "unit": "%"},
      {"measurement": "inhibition at 500 ppm", "setting": "P. placenta; [4]", "result": 89.2, "unit": "%"},
      {"measurement": "inhibition at 50 ppm", "setting": "T. versicolor; [5]", "result": 36.8, "unit": "%"},
      {"measurement": "inhibition at 500 ppm", "setting": "T. versicolor; [5]", "result": 80.7, "unit": "%"}
    ]},
    {"molecule": "Didecyldimethyl ammonium lauryl sulfate", "values": [
      {"measurement": "percent inhibition (retardation) of the fungal growth, C. globosum", "setting": "C. globosum; 50 ppm", "result": 68.0, "unit": "%"},
      {"measurement": "percent inhibition (retardation) of the fungal growth, C. globosum", "setting": "C. globosum; 500 ppm", "result": 78.7, "unit": "%"},
      {"measurement": "percent inhibition (retardation) of the fungal growth, G. trabeum", "setting": "G. trabeum; 50 ppm", "result": 58.0, "unit": "%"},
      {"measurement": "percent inhibition (retardation) of the fungal growth, G. trabeum", "setting": "G. trabeum; 500 ppm", "result": 80.8, "unit": "%"},
      {"measurement": "percent inhibition (retardation) of the fungal growth, P. placenta", "setting": "P. placenta; 50 ppm", "result": 82.6, "unit": "%"},
      {"measurement": "percent inhibition (retardation) of the fungal growth, P. placenta", "setting": "P. placenta; 500 ppm", "result": 86.0, "unit": "%"},
      {"measurement": "percent inhibition (retardation) of the fungal growth, T. versicolor", "setting": "T. versicolor; 50 ppm", "result": 44.0, "unit": "%"},
      {"measurement": "percent inhibition (retardation) of the fungal growth, T. versicolor", "setting": "T. versicolor; 500 ppm", "result": 81.3, "unit": "%"},
      {"measurement": "weight loss compared with control samples", "setting": "[1]", "result": "significantly lower weight loss than the control samples"}
    ]},
    {"molecule": "alkyldimethylbenzyl ammonium chloride [reference compound]", "values": [
      {"measurement": "percent inhibition (retardation) of the fungal growth, C. globosum", "setting": "C. globosum; 50 ppm", "result": 63.8, "unit": "%"},
      {"measurement": "percent inhibition (retardation) of the fungal growth, C. globosum", "setting": "C. globosum; 500 ppm", "result": 81.8, "unit": "%"},
      {"measurement": "percent inhibition (retardation) of the fungal growth, G. trabeum", "setting": "G. trabeum; 50 ppm", "result": 82.1, "unit": "%"},
      {"measurement": "percent inhibition (retardation) of the fungal growth, G. trabeum", "setting": "G. trabeum; 500 ppm", "result": 89.0, "unit": "%"},
      {"measurement": "percent inhibition (retardation) of the fungal growth, P. placenta", "setting": "P. placenta; 50 ppm", "result": 86.8, "unit": "%"},
      {"measurement": "percent inhibition (retardation) of the fungal growth, P. placenta", "setting": "P. placenta; 500 ppm", "result": 87.5, "unit": "%"},
      {"measurement": "percent inhibition (retardation) of the fungal growth, T. versicolor", "setting": "T. versicolor; 50 ppm", "result": 55.0, "unit": "%"},
      {"measurement": "percent inhibition (retardation) of the fungal growth, T. versicolor", "setting": "T. versicolor; 500 ppm", "result": 85.0, "unit": "%"}
    ]},
    {"molecule": "alkyldimethylbenzyl ammonium lauryl sulfate", "values": [
      {"measurement": "percent inhibition (retardation) of the fungal growth, C. globosum", "setting": "C. globosum; 50 ppm", "result": 64.5, "unit": "%"},
      {"measurement": "percent inhibition (retardation) of the fungal growth, C. globosum", "setting": "C. globosum; 500 ppm", "result": 75.6, "unit": "%"},
      {"measurement": "percent inhibition (retardation) of the fungal growth, G. trabeum", "setting": "G. trabeum; 50 ppm", "result": 51.7, "unit": "%"},
      {"measurement": "percent inhibition (retardation) of the fungal growth, G. trabeum", "setting": "G. trabeum; 500 ppm", "result": 82.3, "unit": "%"},
      {"measurement": "percent inhibition (retardation) of the fungal growth, P. placenta", "setting": "P. placenta; 50 ppm", "result": 83.0, "unit": "%"},
      {"measurement": "percent inhibition (retardation) of the fungal growth, P. placenta", "setting": "P. placenta; 500 ppm", "result": 86.6, "unit": "%"},
      {"measurement": "percent inhibition (retardation) of the fungal growth, T. versicolor", "setting": "T. versicolor; 50 ppm", "result": 32.2, "unit": "%"},
      {"measurement": "percent inhibition (retardation) of the fungal growth, T. versicolor", "setting": "T. versicolor; 500 ppm", "result": 72.9, "unit": "%"},
      {"measurement": "weight loss compared with control samples", "setting": "[1]", "result": "significantly lower weight loss than the control samples"}
    ]}
  ]
}
